{
  "source": "patent US9663429B2",
  "about": "“Vitamin D analogues of pharmaceutical interest” (UNIVERSIDADE DE SANTIAGO DE COMPOSTELA, priority 2013, dated 2017)",
  "key": {"HaCaT cells": {"system": "HaCaT cells", "assay": "MTT proliferation assay, HaCaT", "conditions": "10^−7 M, 48 hours, 100% control cells", "experimental": "Proliferation assay in the HaCaT cell line of human keratinocytes. […] The values were plotted in the graphs as mean±SD. As proliferation value, 100% was considered the normal growth of HaCaT cells treated with the carrier in the control.\n(§3) The cells were cultured in 90-mm plates in essential culture medium DMEM, supplemented with 10% bovine foetal serum free of steroid hormones, 100 U/ml penicillin, 100 μg/ml streptomycin and 2 mM non-essential amino acids (L-glutamine) at 37° C. in a humid atmosphere O2/CO2 (95/5%).\n(§4) The first is an indirect method for determining living cells, wherein the yellow water soluble MTT is reduced in mitochondria, thus generating a purple insoluble product (formazan). […] After this time, the culture medium was removed and 500 μl of dimethylsulfoxide (DMSO) was added to each well to solubilise the formazan incorporated by the cells."}, "PC-3 cells": {"system": "PC-3 cells", "assay": "MTT proliferation assay, PC-3", "conditions": "10^−7 M, 48 hours, 100% control cells", "experimental": "Proliferation assay in the PC-3 cell line of human prostate adenocarcinoma. […] The values were plotted in the graphs as mean±SD. As proliferation value, 100% was considered the normal growth of PC-3 cells treated with the carrier in the control.\nas §3, §4"}, "[1]": {"assay": "Dose-response assay of serum calcium in mice", "type": "in vivo", "conditions": "for Serum calcium versus controls, analogues: doses 0.1, 0.5, 1 and 5 μg/kg ip every 2 days for 21 days", "description": "FIG. 9. […] 1,25D (dose of 0.3 μg/kg) and analogues (doses of 0.1, 0.5, 1 and 5 μg/kg) were injected intraperitoneally every 2 days for 21 days. After treatment the calcium levels in the serum were evaluated and the values were represented as mean±SD in […].\n(§1) Calcium mobilization of analogues was determined in 28 male CD-1 mice (6-8 weeks old). 6 Groups of 4 mice each were established, which mice were intraperitoneally (ip) injected with 0.3 μg/kg weight of each analogue or 1,25D dissolved in sesame oil every two days for 3 weeks. A seventh group of 4 mice treated with the carrier (sesame oil) served as controls. Calcium levels in blood were determined by QuantiChomCalciumAssay Kit (BioAssaySystems, Hayward, Calif., USA). In addition, a dose-response assay was performed to assess the effect of administration of the analogues PG-403 and PG136p and hormone (1,25D) at different doses on calcium levels. This assay was performed in male mice (5 mice per group), and the doses used were: 0.1, 0.5, 1, and 5 μg/kg weight of each analogue or 1,25D, i.p. administered every two days for 21 days. In addition, a control group (mice treated with sesame oil) was used."}, "MCF-7-Luc cells": {"system": "MCF-7-Luc cells", "assay": "In vivo anti-tumour activity, MCF-7-Luc tumours in SCID mice", "conditions": "5 μ/kg ip every 2 days for 28 days, p≦0.05", "description": "FIG. 12. In this figure the results obtained by treating a group of 32 mice with the analogue PG136 after being injected with MCF-7-Luc cells are shown.\n(§2) In order to study the anti-tumour activity of the analogue PG136 in vivo, 32 immunosuppressed CB17-Prkdc^scid 8 weeks old female mice were used, called SCID (PRBB, Barcelona, Spain). These mice were injected subcutaneously with 5×10^6 breast tumour cells MCF-7 and MDA-MB-231 stably transfected with plasmid pcDNA3-Luciferase coding for the gene of the luciferase (called MCF-7-Luc and MDA-MB-231-Luc). Two groups of 8 mice were injected with cells MCF-7-Luc and other 2 groups of 8 mice with MDA-MB-231-Luc cells. Fifteen days after injection, the mice were started to be treated intraperitoneally every 2 days for 28 days with the analogue PG136 at a dose of 5 μ/kg dissolved in sesame oil used as carrier. The control group is treated in the same way and with the same range with sesame oil. Tumour size is determined every seven days once started the treatment using an in vivo imaging system (IVIS, Caliper Life Sciences, Alameda, USA), and the tumour size is calculated using a map of intensities retrieved using the Living Image (Caliper Life Sciences) software. In the case of the 2 groups of mice injected with MDA-MB-231-Luc cells, the experiment continued until day 60 and Kaplan-Meier Survival estimates were made."}, "vitamin D receptor (VDR)": {"target": "T1, vitamin D receptor (VDR) (Homo sapiens, UniProt P11473)", "T1 construct": "purchased Invitrogen", "T1 sequence (P11473 1-427)": "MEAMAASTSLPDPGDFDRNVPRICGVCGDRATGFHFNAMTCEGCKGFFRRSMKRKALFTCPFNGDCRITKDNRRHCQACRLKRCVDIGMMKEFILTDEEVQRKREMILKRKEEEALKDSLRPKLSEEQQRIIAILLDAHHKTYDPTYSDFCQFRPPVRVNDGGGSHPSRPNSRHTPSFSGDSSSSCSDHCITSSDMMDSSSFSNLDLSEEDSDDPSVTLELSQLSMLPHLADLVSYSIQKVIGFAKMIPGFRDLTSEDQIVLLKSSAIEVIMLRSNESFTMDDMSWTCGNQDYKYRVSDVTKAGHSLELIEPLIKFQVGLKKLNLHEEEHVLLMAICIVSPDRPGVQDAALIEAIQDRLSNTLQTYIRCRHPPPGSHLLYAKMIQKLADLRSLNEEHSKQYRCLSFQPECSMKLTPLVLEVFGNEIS", "assay": "Competitive binding to vitamin D receptor (Polarscreen VDR competitor assay, fluorescence polarisation)", "description": "FIG. 1. […] The values represent the mean of at least two experiments.\nPolarised fluorescence was determined in 384-well black plates for 200 ms/well using a Mithras LB 940 device (Berthold Technologies)."}, "[2]": {"system": "24-hydroxylase promoter, CYP24A1 (pCYP24A1-Luc)", "assay": "Transactivation reporter assay (pCYP24A1-Luc) in MCF-7 cells", "experimental": "MCF-7 cells were transfected with the reporter vector of 24-hydroxylase (pCYP24A1-Luc vector) for 24 hours. […] The experiments were performed at least twice. The error bars represent the standard deviation (SD)."}, "MDA-MB-231-Luc cells": {"system": "MDA-MB-231-Luc cells", "assay": "In vivo anti-tumour activity, MDA-MB-231-Luc tumours in SCID mice", "from_the_text": "FIG. 13. In this figure the results obtained by treating a group of 32 mice with the analogue PG136 after being injected with MDA-MB-231-Luc cells are shown.\nFIG. 14. The survival rate of mice treated with the analogue PG136 after being injected with MDA-MB-231-Luc cells is shown and compared with control mice.\nas §2, with “In the case of the 2 groups of mice injected with MDA-MB-231-Luc cells, the experiment continued until day 60 and Kaplan-Meier Survival estimates were made.” left out"}, "MCF-7 cells [3]": {"system": "MCF-7 cells", "assay": "3D cell culture on matrigel (spheroid size), MCF-7", "type": "cell-based, human", "description": "FIG. 7. MCF-7 cells were shown for 10 days on a matrigel bed until they formed a 3D cellular structure. […] After treatment, the spheroids were stained with DAPI (4′,6-diamino-2-phenylindole) for 1 hour and photographed under an inverted microscope with ultraviolet light. The size of these spheroids was measured and the values were represented as mean±SD in relative units. […] Those cells treated with the carrier were considered as the control value.\nFor 3D cell culture, a cushion of 200 μl of Matrigel (BD Biosciences) was used in each of the wells of multi-well plates of 24 wells. They were incubated at 37° C. for 20 minutes for their solidification and subsequently the cell suspension (5×10^3 cells per 100 μl volume of medium) was loaded onto the matrigel solidified and another incubation at 37° C. was performed for 30 minutes so that the cells penetrated properly on the matrigel base. 500 μl of DMEM medium were added to each well, and the cells were maintained in culture for 10 days. At the end of this time, the cells were started to be treated with each of the 5 analogues used and 1,25D."}, "SKOV-3 cells": {"system": "SKOV-3 cells", "assay": "MTT proliferation assay, SKOV-3", "conditions": "10^−7 M, 48 hours, 100% control cells", "experimental": "Proliferation assay in the SKOV-3 cell line of human ovary adenocarcinoma. […] The values were plotted in the graphs as mean±SD. As proliferation value, 100% was considered the normal growth of SKOV-3 cells treated with the carrier in the control.\nas §3, §4"}, "[4]": {"assay": "Body weight of mice in the dose-response assay", "type": "in vivo", "conditions": "mice, 0.1, 0.5, 1 and 5 μg/kg ip every 2 days for 21 days", "description": "FIG. 10. […] 1,25D (dose of 0.3 μg/kg) and analogues (doses of 0.1, 0.5, 1 and 5 μg/kg) were injected intraperitoneally every 2 days for 21 days. Animals were weighed every two days during treatment. The values were represented as mean±SD in […].\nIn this experiment, also the weight of the animals was quantified to determine whether there was any modification throughout the treatment."}, "[5]": {"assay": "Calcaemic effects in mice at 0.3 μg/kg", "type": "in vivo", "description": "FIG. 8. […] 1,25D and the various analogues were injected intraperitoneally every 2 days for 21 days at a dose of 0.3 μg/Kg. After treatment the calcium levels in the serum were evaluated and the values were represented as mean±SD in […].\nas §1"}, "MCF-7 cells [6]": {"system": "MCF-7 cells", "assay": "MTT proliferation assay, MCF-7", "conditions": "10^−7 M, 48 hours, 100% control cells", "experimental": "Proliferation assay in the MCF-7 cell line of human breast adenocarcinoma. […] The values were plotted in the graphs as mean±SD. As proliferation value, 100% was considered the normal growth of MCF-7 cells treated with the carrier in the control.\nas §3\nCell proliferation/toxicity in breast cancer lines was assessed by both incorporation assays of 3-(4,5-dimethylthiazol-2-yl)-2,5-difeniltetrazolium (MTT) bromide and cell culture in three dimensions (3D).\nas §4"}},
  "data": [
    {"smiles": "C=C1/C(=C\\C=C(/CC)c2cccc(CCCCCC(C)(C)O)c2)C[C@@H](O)C[C@@H]1O", "note": "[PG-136p, (1R,3S,Z)-5-((E)-3-(3-(6-hydroxy-6-methylheptyl)phenyl)pent-2-enyliden)-4-methylenecyclohexane-1,3-diol]", "values": [
      {"measurement": "Cell proliferation percentage HaCaT 2D", "setting": "HaCaT cells", "value": 68, "unit": "%"},
      {"measurement": "Cell proliferation percentage PC-3 2D", "setting": "PC-3 cells", "value": 78, "unit": "%"},
      {"measurement": "Serum calcium versus control animals (placebo)", "setting": "[1]; 5 μg/kg weight ip every two days for 21 days", "value": "did not significantly raise serum calcium"},
      {"measurement": "Serum calcium versus controls, analogues", "setting": "[1]", "value": "does not produce hypercalcemia"},
      {"measurement": "Serum calcium versus controls, analogues", "setting": "[1]; listed as PG136p", "value": "None of the two analogues tested (PG136p and PG-403) induces increased serum calcium"},
      {"measurement": "Tumour volume versus control group", "setting": "MCF-7-Luc cells", "value": "smaller volume"},
      {"measurement": "Binding to VDR % relative to 1,25D (100%)", "setting": "vitamin D receptor (VDR); activity relative to natural hormone 1,25D normalised at 100%", "value": 24, "unit": "%"},
      {"measurement": "IC50", "setting": "vitamin D receptor (VDR); competitive displacement, 10^−11 to 10^−5 M", "value": 7.11, "unit": "nM"},
      {"measurement": "EC50", "setting": "[2]; Homo sapiens, MCF7, 24 h, read-out: Transcriptional activity EC50", "value": 5.97, "unit": "nM"},
      {"measurement": "Transcriptional activity % relative to 1,25D (100%)", "setting": "[2]; MCF-7 cells, pCYP24A1-Luc", "value": 33, "unit": "%"},
      {"measurement": "Tumour volume versus control group", "setting": "MDA-MB-231-Luc cells; 5 μ/kg ip every 2 days for 28 days, p≦0.0001", "value": "smaller volume"},
      {"measurement": "Survival rate versus control mice (Kaplan-Meier)", "setting": "MDA-MB-231-Luc cells; until day 60, p=0.042", "value": "higher survival rate"},
      {"measurement": "Three-dimensional growth of MCF-7 spheroids (in words)", "setting": "MCF-7 cells [3]; 10^−7 M for 7 days", "value": "inhibit the three-dimensional growth, similarly to 1,25D"},
      {"measurement": "Cell proliferation percentage MCF-7 3D", "setting": "MCF-7 cells [3]; 10^−7 M, matrigel spheroids, 100% control cells", "value": 69, "unit": "%"},
      {"measurement": "Cell proliferation percentage SKOV-3 2D", "setting": "SKOV-3 cells", "value": 78, "unit": "%"},
      {"measurement": "Body weight versus control animals, analogues", "setting": "[4]", "value": "does not change the body weight"},
      {"measurement": "Body weight versus control animals, analogues", "setting": "[4]; listed as PG136p", "value": "did not significantly affect the body weight"},
      {"measurement": "Hypercalcemia (serum calcium versus control)", "setting": "[5]; 0.3 μg/Kg ip every 2 days for 21 days", "value": "does not produce hypercalcemia"},
      {"measurement": "Calcaemic activity: blood calcium in percentage over that induced by 1,25D", "setting": "[5]; ip every two days for 21 days, 0.3 μg/kg (table title prints 0.3 mg/kg)", "value": 0, "unit": "%"},
      {"measurement": "Cell proliferation percentage MCF-7 2D", "setting": "MCF-7 cells [6]", "value": 65, "unit": "%"}
    ]}
  ]
}
